Assay results from patent US20230391739A1, “ARYL DERIVATIVES FOR TREATING TRPM3 MEDIATED DISORDERS” (Katholieke Universiteit Leuven, priority 2020, published 2023).

target: T1, mouse TRPM3α2 (mTRPM3) ion channel (Mus musculus, UniProt J9SQF3); assay: TRPM3 ion channel driven Ca2+ uptake, Fluo-4 AM assay, PS-stimulated (mTRPM3); assay type: cell-based; settings: TRPM3 overexpressing flip-in HEK293 cells stimulated with Pregnenolone sulfate (PS) 50 μM, activity ranges A, B, C
T1 construct: expressed in transfected cells; host or cells: flip-in HEK293
T1 sequence (J9SQF3 1-1709 isoform J9SQF3-12): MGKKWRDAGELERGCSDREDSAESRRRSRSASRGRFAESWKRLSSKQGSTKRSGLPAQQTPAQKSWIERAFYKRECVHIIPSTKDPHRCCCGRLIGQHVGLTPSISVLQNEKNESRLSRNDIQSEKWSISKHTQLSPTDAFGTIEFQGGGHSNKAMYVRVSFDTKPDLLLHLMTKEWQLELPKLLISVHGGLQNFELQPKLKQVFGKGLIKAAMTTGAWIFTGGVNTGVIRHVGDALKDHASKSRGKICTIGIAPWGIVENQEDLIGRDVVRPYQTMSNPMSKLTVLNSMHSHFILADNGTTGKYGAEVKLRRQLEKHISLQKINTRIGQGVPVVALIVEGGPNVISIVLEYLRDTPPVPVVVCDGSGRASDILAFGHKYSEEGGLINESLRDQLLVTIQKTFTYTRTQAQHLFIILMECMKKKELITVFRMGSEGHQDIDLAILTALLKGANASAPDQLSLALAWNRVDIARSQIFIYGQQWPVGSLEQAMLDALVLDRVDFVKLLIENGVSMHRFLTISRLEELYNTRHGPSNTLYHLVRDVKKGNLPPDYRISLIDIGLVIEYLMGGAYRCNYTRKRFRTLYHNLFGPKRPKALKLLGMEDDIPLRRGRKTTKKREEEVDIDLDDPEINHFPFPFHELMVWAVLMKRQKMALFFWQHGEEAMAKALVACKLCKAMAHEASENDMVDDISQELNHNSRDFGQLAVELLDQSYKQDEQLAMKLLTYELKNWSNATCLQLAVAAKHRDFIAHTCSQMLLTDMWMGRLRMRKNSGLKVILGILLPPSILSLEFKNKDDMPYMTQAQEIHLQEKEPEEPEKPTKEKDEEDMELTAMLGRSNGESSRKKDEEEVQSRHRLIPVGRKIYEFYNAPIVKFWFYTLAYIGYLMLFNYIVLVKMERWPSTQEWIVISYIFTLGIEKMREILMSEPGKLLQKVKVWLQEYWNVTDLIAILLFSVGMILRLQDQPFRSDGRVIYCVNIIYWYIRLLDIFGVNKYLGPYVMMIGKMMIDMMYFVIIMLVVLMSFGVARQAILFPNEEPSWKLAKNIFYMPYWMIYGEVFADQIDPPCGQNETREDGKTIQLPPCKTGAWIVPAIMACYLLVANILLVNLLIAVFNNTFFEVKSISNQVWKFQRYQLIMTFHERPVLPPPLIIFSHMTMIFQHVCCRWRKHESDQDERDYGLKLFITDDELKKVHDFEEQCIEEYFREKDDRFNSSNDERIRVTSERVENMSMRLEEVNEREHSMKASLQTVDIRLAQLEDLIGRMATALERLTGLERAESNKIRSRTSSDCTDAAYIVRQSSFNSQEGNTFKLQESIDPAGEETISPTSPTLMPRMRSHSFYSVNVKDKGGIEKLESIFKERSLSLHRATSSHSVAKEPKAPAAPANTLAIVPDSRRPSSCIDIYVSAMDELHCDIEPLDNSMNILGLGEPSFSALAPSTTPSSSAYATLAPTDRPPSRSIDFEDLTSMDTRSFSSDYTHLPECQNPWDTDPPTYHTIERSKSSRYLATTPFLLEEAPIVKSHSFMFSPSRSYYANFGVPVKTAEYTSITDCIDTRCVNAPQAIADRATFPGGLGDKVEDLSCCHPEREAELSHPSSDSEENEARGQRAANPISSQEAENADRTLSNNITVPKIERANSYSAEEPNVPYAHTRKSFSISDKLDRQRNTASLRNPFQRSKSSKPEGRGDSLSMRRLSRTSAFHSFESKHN
Method in brief: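 Ca²⁺ influx through mouse TRPM3α2, opened by 50 μM pregnenolone sulfate, was tracked with Fluo-4 AM in stably transfected HEK293 cells read directly after seeding onto pre-dispensed compound.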

SMILES | IC50
Cc1oc2ccc(OCc3ccccc3F)cc2c1C(=O)N[C@@H]1COC[C@@H]1O (single isomer, unassigned) [Cpd 329-En 2] | < 1 µM
Cc1oc2ccc(OCc3ccccc3)cc2c1C(=O)N[C@H]1CC[C@H](N)CC1 [Cpd 120, N-(trans-4-aminocyclohexyl)-5-(benzyloxy)-2-methylbenzofuran-3-carboxamide] | 1 to 20 µM
Cc1oc2ccc(OCc3ccccc3)cc2c1C(=O)NC1CCC(O)CC1 (stereo not drawn) [Cpd 123, 5-(benzyloxy)-N-(4-hydroxycyclohexyl)-2-methylbenzofuran-3-carboxamide] | < 1 µM
Cc1cccc(COc2ccc3oc(C)c(C(=O)NS(=O)(=O)C4CC4)c3c2)c1 [Cpd 170, N-(cyclopropylsulfonyl)-2-methyl-5-((3-methylbenzyl)oxy)benzofuran-3-carboxamide] | 1 to 20 µM
CCC(Oc1ccc2oc(C)c(C(=O)N[C@H]3CCNC3)c2c1)c1ccccc1C(F)(F)F (mixture of isomers) [Cpd 231, rac-2-methyl-N—((R)-pyrrolidin-3-yl)-5-(1-(2-(trifluoromethyl)phenyl)propoxy)benzofuran-3-carboxamide] | < 1 µM
O=C(O)c1coc2ccc(OCc3ccccc3)cc12 [Cpd 001, 5-(benzyloxy)benzofuran-3-carboxylic acid] | 1 to 20 µM
Cc1oc2ccc(OCc3ccccc3)cc2c1C(=O)NC1CCC(=O)NC1 (stereo not drawn) [Cpd 111, 5-(benzyloxy)-2-methyl-N-(6-oxopiperidin-3-yl)benzofuran-3-carboxamide] | 1 to 20 µM
Cc1oc2ccc(OCc3ccccc3)cc2c1C(=O)NCCc1ccccn1 [Cpd 138, 5-(benzyloxy)-2-methyl-N-(2-(pyridin-2-yl)ethyl)benzofuran-3-carboxamide] | 1 to 20 µM
Cc1oc2ccc(OCc3ccccc3Cl)cc2c1C(=O)O [Cpd 018, 5-((2-chlorobenzyl)oxy)-2-methylbenzofuran-3-carboxylic acid] | 1 to 20 µM
Cc1oc2ccc(OCc3ccccc3F)cc2c1C(=O)NC1(C(N)=O)CCOC1 (single isomer, unassigned) [Cpd 323-En 2, N-(3-carbamoyltetrahydrofuran-3-yl)-5-((2-fluorobenzyl)oxy)-2-methylbenzofuran-3-carboxamide] | < 1 µM
Cc1oc2ccc(OCc3ccccc3)cc2c1C(=O)N[C@H]1CC[C@@H](N)CC1 [Cpd 116, N-(cis-4-aminocyclohexyl)-5-(benzyloxy)-2-methylbenzofuran-3-carboxamide] | < 1 µM
Cc1oc2ccc(OCc3ccccc3)cc2c1C(=O)N[C@@H]1C[C@H]2CNC[C@H]2C1 [Cpd 140, 5-(benzyloxy)-2-methyl-N-(trans-octahydrocyclopenta[c]pyrrol-5-yl)benzofuran-3-carboxamide] | < 1 µM
Cc1oc2ccc(OCc3ccccc3F)cc2c1C(=O)NC1COCC1(F)F (single isomer, unassigned) [Cpd 331-En 2] | < 1 µM
Cc1oc2ccc(OCc3c(F)cccc3Cl)cc2c1C(=O)N(C)C [Cpd 065, 5-((2-chloro-6-fluorobenzyl)oxy)-N,N,2-trimethylbenzofuran-3-carboxamide] | 1 to 20 µM
Cc1oc2ccc(OCc3ccccc3)cc2c1C(=O)N[C@H]1C[C@H](O)C1 [Cpd 053, 5-(benzyloxy)-N-(trans-3-hydroxycyclobutyl)-2-methylbenzofuran-3-carboxamide] | < 1 µM
Cc1oc2ccc(OCc3ccccc3F)cc2c1C(=O)NC1(CO)CCOC1 (single isomer, unassigned) [Cpd 327-En 1, 5-((2-fluorobenzyl)oxy)-N-(3-(hydroxymethyl)tetrahydrofuran-3-yl)-2-methylbenzofuran-3-carboxamide] | < 1 µM
COCCCN1CCC(NC(=O)c2c(C)oc3ccc(OCc4ccccc4)cc23)CC1 [Cpd 229, 5-(benzyloxy)-N-(1-(3-methoxypropyl)piperidin-4-yl)-2-methylbenzofuran-3-carboxamide] | 1 to 20 µM
Cc1oc2ccc(OCc3ccc(C#N)cc3)cc2c1C(=O)N[C@H]1CCNC1 [Cpd 103, (S)-5-((4-cyanobenzyl)oxy)-2-methyl-N-(pyrrolidin-3-yl)benzofuran-3-carboxamide] | 1 to 20 µM

The next lines start with the values.

IC50 | SMILES
< 1 µM | Cc1oc2ccc(OCc3ccccc3)cc2c1C(N)=O [Cpd 035, 5-(benzyloxy)-2-methylbenzofuran-3-carboxamide]
> 20 µM | Cc1oc2ccc(OCc3ccccc3)cc2c1C(=O)N1CCCCC1 [Cpd 047, (5-(benzyloxy)-2-methylbenzofuran-3-yl)(piperidin-1-yl)methanone]
< 1 µM | Cc1oc2ccc(OCc3cccc(F)c3)cc2c1C(=O)NS(=O)(=O)C1CC1 [Cpd 176, N-(cyclopropylsulfonyl)-5-((3-fluorobenzyl)oxy)-2-methylbenzofuran-3-carboxamide]
< 1 µM | Cc1oc2ccc(OCc3ccccc3F)cc2c1C(=O)NC1(C(N)=O)CCOC1 (single isomer, unassigned) [Cpd 323-En 1, N-(3-carbamoyltetrahydrofuran-3-yl)-5-((2-fluorobenzyl)oxy)-2-methylbenzofuran-3-carboxamide]
< 1 µM | Cc1oc2c(F)cc(OCc3ccccc3)cc2c1C(=O)NC1CNCC1(F)F (single isomer, unassigned) [Cpd 306-En 1]
1 to 20 µM | COc1ccc(COc2ccc3oc(C)c(C(=O)O)c3c2)cc1 [Cpd 014, 5-((4-methoxybenzyl)oxy)-2-methylbenzofuran-3-carboxylic acid]
1 to 20 µM | Cc1oc2ccc(OC(CO)c3ccccc3)cc2c1C(=O)NC1(CO)CCOCC1 (single isomer, unassigned) [Cpd 317-En 2, 5-(2-hydroxy-1-phenylethoxy)-N-(4-(hydroxymethyl)tetrahydro-2H-pyran-4-yl)-2-methylbenzofuran-3-carboxamide]
1 to 20 µM | Cc1oc2ccc(OCc3ccccc3)cc2c1C(=O)NCCc1ccncc1 [Cpd 139, 5-(benzyloxy)-2-methyl-N-(2-(pyridin-4-yl)ethyl)benzofuran-3-carboxamide]
< 1 µM | Cc1oc2ccc(OCc3cccc(F)c3)cc2c1C(=O)NCC1CCCO1 (stereo not drawn) [Cpd 132, 5-((3-fluorobenzyl)oxy)-2-methyl-N-((tetrahydrofuran-2-yl)methyl)benzofuran-3-carboxamide]
< 1 µM | Cc1oc2ccc(OCc3ccccc3)cc2c1C(=O)NCc1ccnn1C [Cpd 104, 5-(benzyloxy)-2-methyl-N-((1-methyl-1H-pyrazol-5-yl)methyl)benzofuran-3-carboxamide]
< 1 µM | Cc1oc2ccc(OCc3ccccc3)cc2c1C(=O)NCC1CCC(=O)N1 (stereo not drawn) [Cpd 112, 5-(benzyloxy)-2-methyl-N-((5-oxopyrrolidin-2-yl)methyl)benzofuran-3-carboxamide]
< 1 µM | Cc1oc2ccc(OCc3ccccc3)cc2c1C(=O)NC1CCCNC1=O (stereo not drawn) [Cpd 113, 5-(benzyloxy)-2-methyl-N-(2-oxopiperidin-3-yl)benzofuran-3-carboxamide]
< 1 µM | Cc1oc2ccc(OCc3ccccc3)cc2c1C(=O)N[C@@H](CO)C(N)=O [Cpd 337, (S)—N-(1-amino-3-hydroxy-1-oxopropan-2-yl)-5-(benzyloxy)-2-methylbenzofuran-3-carboxamide]
< 1 µM | Cc1oc2ccc(OCc3cccc(F)c3F)cc2c1C(=O)NC1(CO)CCOCC1 [Cpd 217, 5-((2,3-difluorobenzyl)oxy)-N-(4-(hydroxymethyl)tetrahydro-2H-pyran-4-yl)-2-methylbenzo-furan-3-carboxamide]
< 1 µM | Cc1oc2cc(F)c(OCc3ccccc3)cc2c1C(=O)NC1CNCC1(F)F (single isomer, unassigned) [Cpd 302-En 1, 5-(benzyloxy)-N-(4,4-difluoropyrrolidin-3-yl)-6-fluoro-2-methylbenzofuran-3-carboxamide]
> 20 µM | Cc1oc2cc(C#N)c(OCc3ccccc3)cc2c1C(=O)NC1CNCC1(F)F (single isomer, unassigned) [Cpd 301-En 1, 5-(benzyloxy)-6-cyano-N-(4,4-difluoropyrrolidin-3-yl)-2-methylbenzofuran-3-carboxamide]
< 1 µM | Cc1oc2ccc(OCc3cccc(F)c3F)cc2c1C(=O)N[C@H]1CCNC1 [Cpd 135, (S)-5-((2,3-difluorobenzyl)oxy)-2-methyl-N-(pyrrolidin-3-yl)benzofuran-3-carboxamide]
> 20 µM | Cc1oc2ccc(OC(CCN(C)C)c3ccccc3)cc2c1C(=O)NC1CCNC1=O (stereo not drawn) [Cpd 224, 5-(3-(dimethylamino)-1-phenylpropoxy)-2-methyl-N-(2-oxopyrrolidin-3-yl)benzofuran-3-carboxamide]
1 to 20 µM | Cc1oc2ccc(OCc3ccccc3)cc2c1C(=O)NCCCN(C)C [Cpd 091, 5-(benzyloxy)-N-(3-(dimethylamino)propyl)-2-methylbenzofuran-3-carboxamide]
> 20 µM | CCN1CCCN(C(=O)c2c(C)oc3ccc(OCc4ccccc4)cc23)CC1 [Cpd 149, (5-(benzyloxy)-2-methylbenzofuran-3-yl)(4-ethyl-1,4-diazepan-1-yl)methanone]
< 1 µM | Cc1oc2ccc(OCc3ccccc3)cc2c1C(=O)Nc1cccnc1 [Cpd 059, 5-(benzyloxy)-2-methyl-N-(pyridin-3-yl)benzofuran-3-carboxamide]
< 1 µM | Cc1oc2ccc(OCc3c(F)cccc3F)cc2c1C(=O)NC1(CO)CCOCC1 [Cpd 218, 5-((2,6-difluorobenzyl)oxy)-N-(4-(hydroxymethyl)tetrahydro-2H-pyran-4-yl)-2-methylbenzo-furan-3-carboxamide]
1 to 20 µM | Cc1oc2ccc(OCc3cccc(Cl)c3)cc2c1C(=O)O [Cpd 017, 5-((3-chlorobenzyl)oxy)-2-methylbenzofuran-3-carboxylic acid]
< 1 µM | Cc1oc2ccc(OCc3ccccc3F)cc2c1C(=O)NC1CCN(CCO)C1=O (single isomer, unassigned) [Cpd 311-En 2, 5-((2-Fluorobenzyl)oxy)-N-(1-(2-hydroxyethyl)-2-oxopyrrolidin-3-yl)-2-methylbenzofuran-3-carboxamide]
